Test results taken from US11951089B2, “Pharmaceutical composition for preventing or treating wound or scar, comprising benzbromarone” (INNOVO THERAPEUTICS INC., priority 2020, dated 2024).
pIC50: −log10 of the molar value.

Assays:
[1] = tested on: Lung epithelial cells A549; assay: Sirius red assay, TGF-β1-induced fibrosis in lung epithelial cells A549; type: cell-based
Experimental: (§1) Hepatic stellate LX-2 (Elabscience CH), lung epithelial A549 (ATCC US), liver stellate T6 (Elabscience, CH), or skin KEL FIB (ATCC, US) cells were cultured in 24-well tissue culture plates for 18 hours, followed by TGF-beta 10 ng/ml treatment, and then incubated with test compounds for 24 hours. Cells were washed with PBS, fixed with Bouin's solution, and washed twice with distilled water. The fixed cells were stained with Sirius red for 2 hours to observe cellular morphological changes, and then washed with 0.01 N HCl solution. Collagen-bound Sirius red was extracted with 0.1 N NaOH solution, which was then quantified at a wavelength of 570 nm. The inhibitory efficacy of each compound on collagen production was shown as a percentage.
Lung epithelial cells A549 were treated with 10 ng/ml TGF-β1 to induce fibrosis, and the test compound was treated simultaneously. The extent of fibrosis inhibition was observed by fixing the cells and staining with Sirius Red, a collagen-specific stain, to observe morphological changes (FIG. 6A, 6B), and quantified by extracting Sirius Red with 0.1 N NaOH solution (FIG. 7).

HSP47 = biological target: T1, HSP47 (Homo sapiens, UniProt P50454); assay: Evaluation of HSP47 activity (inhibition of collagen fibril formation, OD 340 nm); type: biochemical; settings: collagen fibril formation in PBS pH 7.4, 37° C.; HSP47 9.45 μg/ml; Prism
T1 construct: purchased GenScript US
T1 sequence (P50454 19-418, species assumed): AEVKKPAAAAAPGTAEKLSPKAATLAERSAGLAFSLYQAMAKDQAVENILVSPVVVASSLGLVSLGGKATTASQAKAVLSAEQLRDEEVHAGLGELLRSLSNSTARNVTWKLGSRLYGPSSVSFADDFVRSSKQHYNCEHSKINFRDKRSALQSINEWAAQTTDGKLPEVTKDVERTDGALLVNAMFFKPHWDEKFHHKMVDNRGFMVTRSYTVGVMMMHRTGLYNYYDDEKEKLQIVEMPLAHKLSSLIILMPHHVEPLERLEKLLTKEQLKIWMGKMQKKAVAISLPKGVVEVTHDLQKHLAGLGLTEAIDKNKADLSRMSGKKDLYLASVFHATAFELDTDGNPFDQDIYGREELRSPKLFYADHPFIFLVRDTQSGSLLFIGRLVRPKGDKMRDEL
Experimental: Fibrils were formed by adding 180 ul of phosphate-buffered saline (PBS, pH 7.4) solution to 20 ul of collagen dissolved in acidic solution (collagen solution, UK), which was measured at a wavelength of 340 nm. HSP47 (GenScript US) was added at a concentration of 9.45 μg/ml to evaluate HSP47 activity as the degree to which it inhibits fibril formation. Test compound was added with concentrations of 100 μM to 1 μM and the inhibitory activity of HSP47 was calculated as a percentage.
The OD measured when collagen was placed in PBS buffer (pH 7.4) to form fibrils at 37° C. was taken as 100%, and the OD measured when HSP47 and collagen were placed together to form fibrils was taken as 0%. The percentage of inhibition of HSP47 by the test compound at each concentration was measured. IC50 values were calculated using Prism software (Graphpad, USA).

[2] = tested on: KEL FIB cells isolated from keloid patients; assay: Sirius red assay, TGF-β1-induced fibrosis in dermal fibroblast KEL FIB cells; type: cell-based
Experimental: as §1
KEL FIB cells (ATCC, USA) isolated from keloid patients were treated with 10 ng/ml TGF-β1 to induce fibrosis, and the test compound was treated simultaneously. The extent of fibrosis inhibition was observed by fixing the cells and staining them with Sirius Red, a collagen-specific stain, to observe morphological changes (FIG. 8A, 8B), and quantified by extracting Sirius Red with 0.1 N NaOH solution (FIG. 9).

[3] = tested on: burn-induced skin scarring; assay: Inhibition of burn-induced skin scarring in minipigs; type: in vivo, Yucatan minipigs; settings: 1% ointment once daily topical, day 45 of burn induction
Experimental: Yucatan minipigs that had been fasted for at least 8 hours were anesthetized using xylazine hydrochloride, midazolam, and propofol. After removing the hair on the trunk and back, the test area was disinfected with povidone iodine solution. Burns were induced by contacting the test area with a 400-gram stainless steel weight for 40 seconds. Burns were applied 2 cm from the spine and 4 cm apart between burn sites. The burn area should not exceed 3.5% of the total animal area. 15 days after burning, the scab was removed and the test compound was applied to the wounds once daily. At 45 days after burn induction, autopsy was performed, and the wounds were fixed in formalin solution and H&E staining was performed to measure the thickness of the dermal layer. The test compound was suspended in propylene glycol (Yakuri pure chemicals, Japan) and made into a homogeneous suspension using an ultrasonic cleaner, which was then diluted in lanolin (Merck, USA) and petroleum jelly (Merck, USA) under 60° C. water bath to prepare an ointment. Each component of the prepared ointment is 1% (w/w) of the test compound, 20% (w/w) of propylene glycol, 15% (w/w) of lanolin, and 64% (w/w) of vaseline. […] The reduction of scar size and wound in the BBR treatment group (BBR 1%) was clearly shown numerically. […] Also, the numerical measurement of the hypertrophy of the dermis layer was shown in FIG. 15B, and the hypertrophy of the dermis layer was the lowest in the BBR treatment group (BBR 1%).

[4] = tested on: carbon tetrachloride-induced liver fibrosis; assay: Carbon tetrachloride-induced liver fibrosis model in mice; type: in vivo; settings: CCl4 4 weeks, oral, twice a day (30 mg/kg BID)
Experimental: CCl4 was administered intraperitoneally at 50 uL (1:1 corn oil) per mouse three times a week for 4 weeks, and the test compound was suspended in 0.5% methylcellulose and administered orally at a dose of 5 ml/kg daily. As a positive control, obeticholic acid (Medkoo, US) was administered at a dose of 30 mg/kg. Body weight was measured once a week during the study period. 28 days after CCl4 administration, […] were inhalationally anesthetized with ether, and once anesthesia was confirmed, they were laparotomized and blood was drawn using a syringe from the posterior vena cava, and then the abdominal aorta and posterior vena cava were cut to exsanguinate/death. Blood was separated into serum and blood biochemical tests were performed. The liver was removed and weighed, the right lobe was fixed in 10% neutral buffered formalin solution, and the left lobe was divided in half and quick-frozen in liquid nitrogen. The quick-frozen samples were stored in an ultra-low temperature freezer set below −70° C. and used for 4-Hydroxyproline assay. The fixed tissues were subjected to the usual tissue processing procedures such as cutting, dehydration, paraffin embedding, and sectioning to prepare specimens for histopathological examination. Hematoxylin & Eosin (H&E) and Picrosirius red staining were performed, and histopathological changes were observed using optical microscope (Olympus BX53, Japan), and the area of fibrosis was analyzed. To determine the extent of carbon tetrachloride-induced liver tissue damage and liver function, plasma alanine aminotransferase (ALT) and bilirubin levels were analyzed in the plasma collected from autopsy using a blood biochemistry analyzer (7180 Hitachi, Japan). […] As liver fibrosis progresses, collagen is deposited in liver tissue. The content of 4-hydroxyproline in collagen in a carbon tetrachloride-induced injured liver tissue was analyzed to determine the extent of fibrosis.

Hepatic stellate cell T6 = assay: Sirius red assay, TGF-β1-induced fibrosis in hepatic stellate cell T6; type: cell-based; settings: T6, 10 ng/ml TGF-β1 co-treatment, 30 μM; compared to the TGF-β1 treatment group
Experimental: as §1
Hepatic stellate cell T6 was treated with 10 ng/ml TGF-β1 to induce fibrosis, and the test compound was treated simultaneously. The extent of fibrosis inhibition was observed by fixing the cells and staining them with Sirius Red, a collagen-specific stain, to observe morphological changes (FIG. 4A, 4B), and quantified by extracting Sirius Red with 0.1 N NaOH solution (FIG. 5).

[5] = tested on: Hepatic stellate cell LX-2; assay: Sirius red assay, TGF-β1-induced fibrosis in hepatic stellate cell LX-2; type: cell-based; settings: LX-2, 10 ng/ml TGF-β1 co-treatment; compared to the TGF-β1 treatment group; BBR 30 μM, 10 μM (FIG. 3)
Experimental: as §1
Hepatic stellate cell LX-2 was treated with 10 ng/ml TGF-β1 (Gibco, US) to induce fibrosis, and the benzbromarone (BBR) treatment group was treated with TGF-β1 and benzbromarone (BBR) simultaneously. The extent of fibrosis inhibition was observed by fixing the cells and staining them with Sirius Red, a collagen-specific stain, to observe morphological changes (FIG. 2A, 2B), and quantified by extracting Sirius Red with 0.1 N NaOH solution (FIG. 3).

[6] = 10 ng/ml TGF-β1, Sirius Red quantified

CCc1oc2ccccc2c1C(=O)c1cc(Br)c(O)c(Br)c1 [benzbromarone, (3,5-dibromo-4-hydroxyphenyl)-(2-ethyl-1-benzofuran-3-yl)methanone]
fibrosis by Sirius Red staining (morphology) ([1]; A549, 10 ng/ml TGF-β1 co-treatment, 30 μM): fibrosis was reduced
pIC50 ([1]; Homo sapiens, A549, 10 ng/ml TGF-β1, Sirius Red OD 570 nm, read-out: IC50 of fibrosis inhibition): 5.37
pIC50 (HSP47): 3.88
concentration at which the fibrosis inhibitory effect began to appear [2, 6]: 3 µM
concentration from which fibrosis was significantly inhibited [2, 6]: ≥ 10 µM
fibrosis by Sirius Red staining (morphology) ([2]; 10 ng/ml TGF-β1 co-treatment, 30 μM): fibrosis was reduced
scar extent compared to positive control triamcinolone 0.1% [3]: reduced
scar size and wound extent compared to control group (Vehicle) [3]: significantly reduced
hypertrophy of the dermis layer (scar tissue thickness, H&E) ([3]; versus other groups): lowest
content of 4-hydroxyproline in liver tissue [4]: statistically significantly reduced
plasma alanine aminotransferase (ALT) [4]: Statistically significant decreases
plasma bilirubin [4]: Statistically significant decreases
fibrosis area of liver tissue ([4]; versus obeticholic acid 30 mg/kg): comparable result with fibrosis inhibition as the obeticholic acid (OCA) treatment group
degree of fibrosis (Sirius Red, quantified) (Hepatic stellate cell T6): significantly reduced
degree of fibrosis (Sirius Red, quantified) [5]: significantly reduced
